Measured values as given in PubChem BioAssay (NCI).
Where “and” joins values, the source holds several entries; their conditions need not be identical. Identical values can stand only once.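 Five concentrations, 48 hours, 96-well plates. Abbreviation: GI50, concentration required for 50% inhibition of growth. TGI marks complete inhibition of growth.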

Key:
Experiment in all cases: NCI tumour cell line growth inhibition, 48 h
SK-MEL-28 melanoma = tested on: SK-MEL-28 melanoma
M14 melanoma = tested on: M14 melanoma
HL-60(TB) leukemia = tested on: HL-60(TB) leukemia
HCT-15 colon = tested on: HCT-15 colon
UACC-257 melanoma = tested on: UACC-257 melanoma
BT-549 breast = tested on: BT-549 breast
NCI-H23 lung = tested on: NCI-H23 lung
MALME-3M melanoma = tested on: MALME-3M melanoma
SNB-75 CNS = tested on: SNB-75 CNS
786-0 renal = tested on: 786-0 renal

Row | SMILES | GI50 (SK-MEL-28 melanoma) | TGI (SK-MEL-28 melanoma) | GI50 (M14 melanoma) | TGI (M14 melanoma) | GI50 (HL-60(TB) leukemia) | TGI (HL-60(TB) leukemia) | GI50 (HCT-15 colon) | TGI (HCT-15 colon) | GI50 (UACC-257 melanoma) | TGI (UACC-257 melanoma) | GI50 (BT-549 breast) | TGI (BT-549 breast) | GI50 (NCI-H23 lung) | TGI (NCI-H23 lung) | GI50 (MALME-3M melanoma) | TGI (MALME-3M melanoma) | GI50 (SNB-75 CNS) | TGI (SNB-75 CNS) | GI50 (786-0 renal) | TGI (786-0 renal)
1 | CN1CCC(CNc2ccc3ncc(-c4cccc(OC(F)(F)F)c4)n3n2)CC1 | 1550 nM and 1610 nM | 2990 nM and 3140 nM | 1740 nM and 1480 nM | 3500 nM and 3150 nM | 1540 nM and 1000 nM | 3790 nM and 2890 nM | 2000 nM and 2450 nM | 4780 nM and > 10000 nM | 1510 nM and 1440 nM | 3050 nM and 2800 nM | 2450 nM and 4350 nM | 10900 nM and > 10000 nM | 2470 nM and 3960 nM | 9480 nM and > 10000 nM | 1640 nM and 1650 nM | 3250 nM and 3230 nM | 1390 nM and 1090 nM | 4460 nM and 8120 nM | 1780 nM and 1690 nM | 3450 nM and 4060 nM
2 | Cc1cccc(-c2nn3c(c2-c2ccnc4ccc(C(N)=O)cc24)CCC3)n1 | > 100000 nM | > 100000 nM | > 91900 nM | > 100000 nM | > 100000 nM | > 100000 nM | > 100000 nM | > 100000 nM | > 100000 nM | > 100000 nM | > 100000 nM | > 100000 nM | > 100000 nM | > 100000 nM | 57200 nM | > 100000 nM | > 100000 nM | > 100000 nM | > 100000 nM | > 100000 nM
3 | C=C(C)[C@@H]1CC[C@]2(C(N)=O)CC[C@]3(C)[C@H](CC[C@@H]4[C@@]5(C)CC[C@H](O)C(C)(C)[C@@H]5CC[C@]43C)[C@@H]12 | 10900 nM | 42300 nM | 6050 nM | > 100000 nM | 3590 nM | 17500 nM | 3280 nM | 12300 nM | 13200 nM | > 100000 nM | 3990 nM | 19700 nM | 2260 nM | 5210 nM | 2390 nM | 8150 nM | 2740 nM | 12100 nM | 2030 nM | 4610 nM
4 | C[C@H](N)C(=O)N[C@@H]1[C@H]2C(=C(O)C[C@@H](O)[C@@H]2O)C(=O)O[C@]1(C)C(Cl)Cl | – | 2750 nM and 1650 nM | 258 nM | 1490 nM and 507 nM | 254 nM and 149 nM | – | 894 nM | 10100 nM and 5570 nM | 96 nM | 1160 nM and 1940 nM | 315 nM | 2570 nM and 1530 nM | 226 nM | 1040 nM and 1100 nM | – | 1640 nM and 1330 nM | 226 nM | 3850 nM and 1070 nM | 246 nM | 10900 nM and 1800 nM
5 | O=c1[nH]cc(/C=N\Nc2ccccc2)c(=O)[nH]1 | – | > 100000 nM | – | > 100000 nM | – | > 100000 nM | – | > 100000 nM | – | > 100000 nM | – | > 100000 nM | – | > 100000 nM | – | > 100000 nM | – | > 100000 nM | – | > 100000 nM
6 | C/C1=C/C(=O)O[C@@H]2C[C@@H](CC[C@H](C)/C=C\C=C\CC1)O[C@@](O)([C@@H]1CSC(=O)N1CO)C2 | 164 nM | 603 nM | 227 nM | 21200 nM | 253 nM | 18800 nM | 68.9 nM | > 91400 nM | 420 nM | 16000 nM | 59.2 nM | 20000 nM | 151 nM | 30400 nM | 96.2 nM | 21000 nM | 15.1 nM | 52.3 nM | 137 nM | 12300 nM
